Data on 2 compounds can be found in patent US7183061B2, “Method of expressing Heliothis ecdysone receptor fusion protein” (Syngenta Limited, priority 1996, dated 2007).

Experiment [1] deals with glucocorticoid receptor transactivating and DNA binding domains fused to the ecdysone receptor hinge and ligand binding domains. The note with it: mammalian cells; cited from earlier work.
Experiment [2] has as its target T1, glucocorticoid/Drosophila ecdysone chimeric receptor (UniProt P04150+P34021).
T1 construct: expressed in transfected cells; host or cells: maize suspension-culture protoplasts
T1 sequence (P04150+P34021 with tags, fused parts or gaps): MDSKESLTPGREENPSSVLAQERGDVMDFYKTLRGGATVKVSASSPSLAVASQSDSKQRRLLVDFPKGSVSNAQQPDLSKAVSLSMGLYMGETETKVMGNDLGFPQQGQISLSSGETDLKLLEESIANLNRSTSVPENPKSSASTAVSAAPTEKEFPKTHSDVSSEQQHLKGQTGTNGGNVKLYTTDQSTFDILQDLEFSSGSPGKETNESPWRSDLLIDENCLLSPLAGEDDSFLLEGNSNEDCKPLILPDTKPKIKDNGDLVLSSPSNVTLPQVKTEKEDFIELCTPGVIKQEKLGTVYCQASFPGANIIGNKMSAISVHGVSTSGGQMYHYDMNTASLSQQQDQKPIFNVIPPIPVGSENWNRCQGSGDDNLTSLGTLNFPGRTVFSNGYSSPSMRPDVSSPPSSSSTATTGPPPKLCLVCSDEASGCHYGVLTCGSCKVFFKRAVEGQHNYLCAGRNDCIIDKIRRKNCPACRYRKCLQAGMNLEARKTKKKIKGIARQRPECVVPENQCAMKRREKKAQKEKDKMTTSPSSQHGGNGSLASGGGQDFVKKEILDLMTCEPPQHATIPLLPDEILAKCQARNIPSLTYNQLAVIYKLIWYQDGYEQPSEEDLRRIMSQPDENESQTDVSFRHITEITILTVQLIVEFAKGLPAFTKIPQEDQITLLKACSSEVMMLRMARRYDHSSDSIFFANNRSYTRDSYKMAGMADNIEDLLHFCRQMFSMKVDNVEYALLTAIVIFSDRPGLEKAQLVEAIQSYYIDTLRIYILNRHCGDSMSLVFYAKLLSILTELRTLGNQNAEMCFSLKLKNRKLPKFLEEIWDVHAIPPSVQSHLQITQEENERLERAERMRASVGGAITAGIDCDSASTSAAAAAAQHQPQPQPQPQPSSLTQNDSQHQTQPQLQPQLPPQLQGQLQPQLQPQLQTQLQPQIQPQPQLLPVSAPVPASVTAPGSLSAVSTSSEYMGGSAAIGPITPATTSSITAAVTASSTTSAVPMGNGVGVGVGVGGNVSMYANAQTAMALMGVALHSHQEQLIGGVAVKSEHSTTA
Nature of the experiment: Maize protoplast GUS reporter assay with pMF6GREcRS and p221.9GRE6. Type of experiment: cell-based. The settings on record: maize protoplasts, reporter plus effector, concentration not given.

In the case of `CC(C)(O)CC[C@@H](O)[C@](C)(O)[C@H]1CC[C@@]2(O)C3=CC(=O)[C@@H]4C[C@@H](O)[C@@H](O)C[C@]4(C)[C@H]3CC[C@]12C` [20-hydroxyecdysone], the “activity of chimeric receptor as homodimer” value in experiment [1] is “not responsive”.

For `CC(C)(C)N(NC(=O)c1ccccc1)C(=O)c1ccccc1` [RH5849, 1,2-dibenzoyl, 1-tert-butyl hydrazide], in experiment [2], the “chemical induced reporter gene activity / induced levels of expression” value is “no chemical induced reporter gene activity”.
